Values joined by “and” are separate entries in the source; they are usually repeats but may differ in a detail not shown here. Identical values can stand only once.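 Exposure lasted 48 hours, with cells grown in 96-well plates and compounds tested at five concentrations. GI50 = concentration required for 50% inhibition of growth. Definition used: TGI = concentration required for complete inhibition of growth.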
Key:
Assay in all cases: DTP human tumour cell line panel, 48 h
[1] = test system: SF-295 CNS
[2] = test system: HCT-15 colon
[3] = test system: NCI-H522 lung
[4] = test system: RXF 393 renal
[5] = test system: U251 CNS
[6] = test system: A498 renal
[7] = test system: SK-MEL-5 melanoma
[8] = test system: SR leukemia
[9] = test system: SF-268 CNS
[10] = test system: OVCAR-4 ovarian
[11] = test system: NCI-H226 lung
[12] = test system: MCF7 breast
[13] = test system: MDA-MB-231 breast
[14] = test system: SNB-19 CNS
[15] = test system: OVCAR-3 ovarian
[16] = test system: MOLT-4 leukemia
[17] = test system: LOX IMVI melanoma
[18] = test system: SN12C renal
[19] = test system: EKVX NSCLC
[20] = test system: PC-3 prostate
[21] = test system: BT-549 breast
[22] = test system: K-562 leukemia
[23] = test system: HCT-116 colon
[24] = test system: SNB-75 CNS
[25] = test system: HS 578T breast
[26] = test system: HOP-62 NSCLC
[27] = test system: HL-60(TB) leukemia
[28] = test system: UACC-257 melanoma
[29] = test system: HCC-2998 colon

SMILES: COc1cc(Nc2ncc(F)c(Nc3ccc4c(n3)N(COP(=O)(O)O)C(=O)C(C)(C)O4)n2)cc(OC)c1OC
- GI50 [1]: 1.39 µM and 1.17 µM
- TGI [1]: 7.55 µM and 8.7 µM
- GI50 [2]: 2.45 µM and 3.22 µM
- TGI [2]: > 100 µM
- GI50 [3]: 1.53 µM and 1.24 µM
- TGI [3]: 7.02 µM and 7.1 µM
- GI50 [4]: 0.1 µM and 0.256 µM
- TGI [4]: 0.621 µM and 0.936 µM
- GI50 [5]: 7.55 µM and 2 µM
- TGI [5]: > 100 µM
- GI50 [6]: 0.356 µM and 0.221 µM
- TGI [6]: 1.37 µM and 0.872 µM
- GI50 [7]: 5.51 µM and 3.54 µM
- TGI [7]: 33.3 µM and > 10 µM
- GI50 [8]: 2.93 µM and 2.97 µM
- TGI [8]: > 36.5 µM
- GI50 [9]: 1.45 µM and 1.04 µM
- TGI [9]: 5.22 µM and 3.73 µM
- GI50 [10]: 1.69 µM and 1.74 µM
- TGI [10]: 6.31 µM and 6.78 µM
- GI50 [11]: 0.876 µM and 0.38 µM
- TGI [11]: 4.78 µM and 2.32 µM
- GI50 [12]: 3.02 µM and 3.32 µM
- TGI [12]: 22.6 µM and > 10 µM
- GI50 [13]: 1.67 µM and 1.35 µM
- TGI [13]: 5.07 µM and 7.69 µM
- GI50 [14]: 2.68 µM and 2.84 µM
- TGI [14]: 21.3 µM and > 10 µM
- GI50 [15]: 2.66 µM and 2.71 µM
- TGI [15]: 33.6 µM and > 10 µM
- GI50 [16]: 3.54 µM and 3.05 µM
- TGI [16]: > 62 µM
- GI50 [17]: 1.38 µM and 1.09 µM
- TGI [17]: 2.99 µM and 2.46 µM
- GI50 [18]: 1.01 µM and 1.05 µM
- TGI [18]: 16.6 µM and > 10 µM
- GI50 [19]: 2.19 µM and 1.93 µM
- TGI [19]: 13.7 µM and > 10 µM
- GI50 [20]: 2.1 µM and 4.17 µM
- TGI [20]: 22.6 µM and > 10 µM
- GI50 [21]: 1.56 µM and 1.57 µM
- TGI [21]: 4.45 µM and 6.5 µM
- GI50 [22]: 5.3 µM and 3.41 µM
- TGI [22]: > 100 µM
- GI50 [23]: 3.25 µM and 3.02 µM
- TGI [23]: 23.5 µM and > 10 µM
- GI50 [24]: 0.319 µM
- TGI [24]: 1.52 µM
- GI50 [25]: 0.538 µM and 0.173 µM
- TGI [25]: 4.27 µM and 0.59 µM
- GI50 [26]: 2.25 µM and 0.753 µM
- TGI [26]: 10.2 µM and 7.37 µM
- GI50 [27]: 4.19 µM and 6.05 µM
- TGI [27]: 32.6 µM and > 10 µM
- GI50 [28]: 10.6 µM and 5.57 µM
- TGI [28]: > 90.7 µM
- GI50 [29]: 16.4 µM
- TGI [29]: > 100 µM

Reference: PubChem BioAssay (NCI)
